Measurements taken from paper PMC10459552, “Cardiomyocyte-Targeting Peptide to Deliver Amiodarone” (Pharmaceutics, 2023).
Counter-ions that a name gives are not always drawn.

Columns and labels:
guinea pig hearts = assay: Optical mapping of voltage and Ca2+ in Langendorff-perfused hearts after daily intraperitoneal injection; details: same dosing; for AP and CaT durations compared to control hearts: recovery to 90% of baseline, Figure 4c, e
Experimental: At the end of the study, the GPs were euthanized, the hearts excised and perfused on a Langendorff apparatus with Tyrode’s solution containing (in mM): NaCl (130), KCl (4), MgSO4 (1.2), NaHCO3 (25), Glucose (5), CaCl2 (1.25), and Mannitol (45), and gassed with 95% O2 and 5% CO2, with a pH of 7.0, at 37 °C. The hearts were placed in a custom-designed chamber to subdue the motion artifacts, along with a 15 min blebbistatin (5 µM) in perfusate to minimize the contractions. Bolus injections of voltage (RH237, 25 µL of 2 mg/mL dimethyl sulfoxide (DMSO)) and Ca^2+-indicator dye (Rhod-2/AM, 200 µL of 2 mg/mL DMSO) were injected in the air trap above the aortic cannula. Fluorescence from the epicardium was collected with a camera lens, split with a 570 nm dichroic mirror and focused on two CMOS cameras (Sci-Media UltimaOne, Costa Mesa, CA, USA) capturing the fluorescence emission at 570–595 nm for the cytosolic Ca^2+ and 610–750 nm wavelengths for the voltage, as described in detail previously [33]. After resting sinus rhythm image acquisition, the hearts were paced at 250 ms with programmed stimulation to measure and compare the conduction velocity and transient duration (90%) of various treatment groups.
Adult male GPs (250–350 g) were injected intraperitoneally with amiodarone (80 mg/kg; n = 4) daily for 7 days, CTP–amio (26.3 mg/kg; n = 4) for 5 days, or CTP alone (17.8 mg/kg; n = 4) for 5 days and compared to vehicle-only injected GPs (n = 10). At the end of the injection period, the GPs were euthanized, and their hearts were excised and perfused in a Langendorf apparatus. The hearts were labeled with a voltage-sensitive dye (RH 237) and a Ca^2+ indicator (Rhod-2/AM) with a bolus injection in the perfusate in the air trap above the aortic cannula. Fluorescence images of the heart were focused on 2 CMOS cameras, one to detect voltage and the other intracellular free Ca^2+. The heart rate, action potentials (APs), and intracellular free-Ca^2+ transients (CaT) were measured from 10,000 pixels of the voltage and Ca^2+ CMOS cameras (Supplemental Figure S1). Durations of the APs and CaTs were calculated from the first derivative of the rise of the signals to their recovery to 90% of the baseline.

[1] = test system: guinea pig hearts (gene expression); assay: RNA sequencing of treated hearts versus control hearts; assay type: in vivo; details: CTP-treated hearts versus controls
Experimental: Libraries were generated with the Illumina Stranded mRNA Library Prep kit (Illumina: 20040534, San Diego, CA, USA), according to the manufacturer’s instructions. RNA was assessed for quality using a Total RNA 15 nt kit (Agilent: DNF-471-33) on an Advanced Analytical 5300 Fragment Analyzer. The RNA concentration was quantified with a Qubit BR RNA assay kit (Invitrogen: Q10211) on a Qubit 4 (Invitrogen: Q33238). Briefly, 50 ng of input RNA was used for each sample. Following adapter ligation, 15 cycles of indexing PCR were completed, using IDT for Illumina RNA UD Indexes (Illumina: 20040553). Library assessment and quantification were performed using Qubit 1x HS DNA (Invitrogen: Q33231) on a Qubit 4 fluorometer and a HS NGS Fragment kit (Agilent: DNF-474-1000). […] The pooled library was loaded at 750 pM, and sequencing was carried out with read lengths of 2 × 101 bp, with an average of ~40 million reads per sample. […]
The raw RNA sequencing (RNA-Seq) paired-end reads for the guinea pig (GP) samples were processed through the Mayo RNA-Seq bioinformatics pipeline, RapMap version 1.0.0. Briefly, the raw reads were trimmed with a base quality cutoff of Phred score Q30 using Trimmomatic. […]
Using the gene-level counts from RapMap, genes differentially expressed between the control and treated groups were assessed using the bioinformatics package edgeR 2.6.2 [37]. […]

mice = details: biodistribution studies; cited from earlier work
Text: The ability of cationic or hydrophobic cell-penetrating peptides to transduce a wide variety of tissue types in vivo limits their clinical utility because of their lack of cell specificity, leading to a higher chance of off-target adverse side effects. Phage display using libraries of various lengths and various bacteriophage strains have been successfully utilized to identify tissue-specific penetrating peptides. In our prior work, we employed a combinatorial in vitro and in vivo M13 phage display methodology to identify a 12-amino-acid, synthetic, mildly bas ...

| Compound | heart rate during sinus rhythm compared to control hearts (guinea pig hearts; Figure 4a) | conduction velocity (CV) of the APs and CaT compared to control hearts (guinea pig hearts; Figure 4b, d) | calcium transients compared to the controls (guinea pig hearts; Rhod-2/AM fluorescence) | AP and CaT durations compared to control hearts (guinea pig hearts) | expression of α-adrenergic receptors [1] | expression of β-adrenergic receptors [1] | crossing of the blood–brain barrier (mice) | route of excretion (mice) |
| --- | --- | --- | --- | --- | --- | --- | --- | --- |
| CCCCc1oc2ccccc2c1C(=O)c1cc(I)c(OCCN(CC)CC)c(I)c1 [amiodarone, Amiodarone hydrochloride] | significantly decreased | decreased | significantly decreased | increased |  |  |  |  |
| NH2-APWHLSSQYSRT-COOH (H-APWHLSSQYSRT-OH) [CTP, 12-amino-acid, synthetic, mildly basic, non-naturally occurring cell-penetrating peptide identified by phage display] |  |  |  | decreased | upregulation | downregulation | does not cross | predominantly by a renal followed by a hepatobiliary mechanism |
